According to paper PMC2363132, “Phase I and pharmacokinetic study of DACA (XR5000): a novel inhibitor of topoisomerase I and II” (British Journal of Cancer, 1999):
Where two headings read alike, the source gives them in different places.

What was measured:
[1] = tested on: sublines of the Jurkat human leukaemia cell line, which have reduced amounts of topoisomerase II; set-up: method as in Finlay et al, 1993; conditions: ref Finlay et al, 1993; cited from earlier work
cancer patients = tested on: cancer patients; set-up: method as in Abigerges et al, 1996; conditions: phase I trial; ref Abigerges et al, 1996; cited from earlier work
murine 16/C tumour = tested on: murine 16/C tumour; set-up: method as in Baguley et al, 1995; conditions: ref Baguley et al, 1995; cited from earlier work
[2] = set-up: method as in Evans et al, 1992; Paxton et al, 1992, 1993a, 1993b; conditions: preclinical pharmacology studies; ref Evans et al, 1992; Paxton et al, 1992, 1993a, 1993b; cited from earlier work
L1210 leukaemia = conditions: cited from earlier work
metastatic solid tumour = experiment: Anti-tumour activity in patients, WHO criteria; type: in vivo, human; conditions: 41 patients, 9-800 mg m-2
[3] = human, in vivo
[4] = tested on: patients with solid tumours
Colon 11 A = tested on: Colon 11 A; set-up: method as in Baguley et al, 1995; conditions: Colon 11 A tumour; ref Baguley et al, 1995; cited from earlier work
[5] = tested on: multi-drug resistant subline of the P388 leukaemia expressing the P-glycoprotein; set-up: method as in Baguley et al, 1990; conditions: ref Baguley et al, 1990; cited from earlier work
P388 leukaemia = conditions: cited from earlier work
Colon 38 = tested on: Colon 38; set-up: method as in Baguley et al, 1995; conditions: Colon 38 tumour; ref Baguley et al, 1995; cited from earlier work
Lewis lung carcinoma = tested on: Lewis lung carcinoma; set-up: method as in Atwell et al, 1987; Finlay and Baguley, 1989; conditions: Lewis lung carcinoma in mice; ref Atwell et al, 1987; Finlay and Baguley, 1989; cited from earlier work
[6] = set-up: method as in Evans et al, 1992; Paxton et al, 1992, 1993a, 1993b; conditions: preclinical; ref Evans et al, 1992; Paxton et al, 1992, 1993a, 1993b; cited from earlier work
mice = conditions: murine data, cited from earlier work
clinical = conditions: human, in vivo; for Cmax: 800 mg

For `COc1cc([C@@H]2c3cc4c(cc3[C@@H](O[C@@H]3O[C@@H]5CO[C@@H](C)O[C@H]5[C@H](O)[C@H]3O)[C@H]3COC(=O)[C@H]23)OCO4)cc(OC)c1O` [etoposide], the “sensitivity of Jurkat sublines with reduced topoisomerase II” value [1] is listed as “highly resistant”.
In the case of `Cc1cnc(NCCCN(C)C)c2c1[nH]c1ccc3cc(O)ccc3c12` [intoplicine], the dose-limiting toxicity (cancer patients) is listed as “hepatotoxicity”.
For `COc1cccc2c1C(=O)c1c(O)c3c(c(O)c1C2=O)C[C@@](O)(C(=O)CO)C[C@@H]3O[C@H]1C[C@H](N)[C@H](O)[C@H](C)O1` [doxorubicin], the “sensitivity of Jurkat sublines with reduced topoisomerase II” value [1] is listed as “highly resistant”.
In the case of `CN(C)CCNC(=O)c1cccc2cc3ccccc3nc12.Cl.Cl` [DACA, N-[2-(dimethylamino)ethyl] acridine-4-carboxamide dihydrochloride], the activity in vivo (murine 16/C tumour) is given as “highly active”, the “tissue levels in brain, liver, kidney and heart relative to plasma” value [2] is given as “substantially higher” and the activity in vivo (L1210 leukaemia) is given as “only moderate activity”. The “objective responses according to WHO criteria” value (metastatic solid tumour) was “no objective responses”, the T1/2 [3] was 2.08 h and the Vss [3] was 145.21. For the same compound, the “highest AUC on day 3 of all patients” value [3] was 54.2, the plasma clearance [3] was 81.11 and the “relationship between dose and AUC” value [3] was “linear relationship”. For the same compound, the “maximum tolerated dose (MTD)” value ([4]; 3 h i.v. infusion on 3 successive days, repeated every 3 weeks) was 800 mg m-2 d-1, the “dose-limiting toxicity (DLT)” value ([4]; 3 h i.v. infusion on 3 successive days, 800 mg m-2) was “pain during the infusion” and the clinically significant myelosuppression ([4]; all dose levels) was “rare”. The activity in vivo (Colon 11 A) was “highly active”, the “activity against multi-drug resistant P388 subline expressing P-glycoprotein” value [5] was “maintains activity” and the “sensitivity of Jurkat sublines with reduced topoisomerase II” value [1] was “retain sensitivity”. For the same compound, the activity in vivo (P388 leukaemia) was “only moderate activity”, the activity in vivo (Colon 38) was “highly active” and the activity in vivo (Lewis lung carcinoma) was “highly active”. The “unbound fraction in mouse plasma” value [6] was 15.8%, the LD10 (mice; five consecutive daily i.v. doses) was “approximately 30 mg kg-1 per day” and the LD10 (mice; single i.v. dose) was 58 mg/kg. The Cmax (clinical; female, Cmax) was 3.15 µg/mL, the Cmax (clinical; Cmax (range)) was 2.31 to 12.1 µg/mL and the half-life (clinical; T1/2) was 2.22 h. It also gave a Tmax (clinical; Tmax) of 2.91 h, a Vd (clinical; Vss) of 143 L and a clearance (clinical; plasma clearance) of 1400 mL/min.
